Assay results from patent US20070281992A1, “COMBINATION OF GYRASE B INHIBITORS AND PROTEIN SYNTHESIS INHIBITORS AND USES THEREOF” (priority 2006, published 2007).
Where two headings read alike, the source gives them in different places.

Assays:
[1] = tested on: Methicillin-Resistant Staphylococcus aureus Isolates; assay: MIC assay (NCCLS broth dilution), MRSA clinical isolates; format: cell-based; conditions: for MIC: Staphylococcus aureus
Description: (§1) Antibiotics: novobiocin, tetracycline, minocycline, oxacillin, and vancomycin were all purchased from Sigma-Aldrich. Linezolid was obtained from Pfizer, Inc. Novobiocin/tetracycline and novobiocin/minocycline were tested in a 2.5:1 ratio to mimic the serum levels. (Vavra, J. J., 1967, Development of resistance to novobiocin, tetracycline, and novobiocin-tetracycline combinations in Staphylococcus aureus populations, J. Bacteriol 93(3):801). Compounds were tested across a concentration range consisting of 11 two-fold serial dilutions of test agent.
(§2) Stock solutions were prepared in sterile deionized water; novobiocin stock concentration was 1600 μg/mL and all other drugs stock solutions were prepared at 640 μg/mL. The stock solutions were allowed to sit at room temperature for one hour to auto-sterilize prior to use in the test. All compounds were in solution in water. The control agent was vancomycin hydrochloride, Sigma Chemical Lot # 015K0825.
(§3) The test organisms for the assay were 52 MSSA, 52 MRSA, 8 VISA, 7 VISE, and 3 LRSA isolates. Quality control strains included Staphylococcus aureus 0100 (ATCC 29213) and Enterococcus faecalis (ATCC 29212).
(§4) The MIC assay was performed according to published NCCLS guidelines. (National Committee for Clinical Laboratory Standards, Methods for Dilution Antimicrobial Susceptibility Tests for Bacteria that Grow Aerobically; Approved Standard-Sixth Edition, NCCLS Document M7-A6 [ISBN 1-56238-486-4], NCCLS, 940 West Valley Road, Suite 1400, Wayne, Pa. 19087-1898 USA, 2003). The test medium was Mueller Hinton II Broth for all organisms.

[2] = tested on: Staphylococcus aureus 0100 (ATCC 29213); assay: MIC assay, quality control strain S. aureus ATCC 29213; format: cell-based; conditions: ATCC29213, read-out: Minimal Inhibitory Concentration, quality control, S. aureus ATCC 29213, repeat runs 22FEB06-09MAR06, combinations at 2.5:1
Description: as §1, §2, §3, §4

[3] = tested on: Staphylococcus aureus 0100 (ATCC 29213); conditions: S. aureus ATCC 29213; accepted quality control range; cited from earlier work
[4] = tested on: Enterococcus faecalis (ATCC 29212); conditions: E. faecalis ATCC 29212; accepted quality control range; cited from earlier work

CN[C@H](CC(C)C)C(=O)N[C@H]1C(=O)N[C@@H](CC(N)=O)C(=O)N[C@H]2C(=O)N[C@H]3C(=O)N[C@H](C(=O)N[C@H](C(=O)O)c4cc(O)cc(O)c4-c4cc3ccc4O)[C@H](O)c3ccc(c(Cl)c3)Oc3cc2cc(c3O[C@@H]2O[C@H](CO)[C@@H](O)[C@H](O)[C@H]2O[C@H]2C[C@](C)(N)[C@H](O)[C@H](C)O2)Oc2ccc(cc2Cl)[C@H]1O [VA, vancomycin]
MIC Range ([1]; 52 MRSA isolates, combinations at 2.5:1, given as NB/partner): .5 to 2 µg/mL
MIC ([1]; read-out: Minimal Inhibitory Concentration, MRSA isolate 757, 24FEB06): 1 µg/mL
MIC ([1]; read-out: Minimal Inhibitory Concentration, MRSA isolate 758, 03MAR06): 1 µg/mL
MIC ([1]; read-out: Minimal Inhibitory Concentration, MRSA isolate 758, 24FEB06): 1 µg/mL
MIC ([1]; read-out: Minimal Inhibitory Concentration, MRSA isolate 760, 03MAR06): 1 µg/mL
MIC ([1]; read-out: Minimal Inhibitory Concentration, MRSA isolate 760, 24FEB06): 1 µg/mL
MIC ([1]; read-out: Minimal Inhibitory Concentration, MRSA isolate 763, 22FEB06): 1 µg/mL
MIC ([1]; read-out: Minimal Inhibitory Concentration, MRSA isolate 765, 22FEB06): 0.5 µg/mL
MIC ([1]; read-out: Minimal Inhibitory Concentration, MRSA isolate 766, 22FEB06): 0.5 µg/mL
MIC ([1]; read-out: Minimal Inhibitory Concentration, MRSA isolate 767, 22FEB06): 0.5 µg/mL
MIC ([1]; read-out: Minimal Inhibitory Concentration, MRSA isolate 768, 22FEB06): 0.5 µg/mL
MIC ([1]; read-out: Minimal Inhibitory Concentration, MRSA isolate 769, 22FEB06): 0.5 µg/mL
MIC ([1]; read-out: Minimal Inhibitory Concentration, MRSA isolate 770, 22FEB06): 0.5 µg/mL
MIC ([1]; read-out: Minimal Inhibitory Concentration, MRSA isolate 771, 22FEB06): 1 µg/mL
MIC ([1]; read-out: Minimal Inhibitory Concentration, MRSA isolate 772, 22FEB06): 0.5 µg/mL
MIC ([1]; read-out: Minimal Inhibitory Concentration, MRSA isolate 773, 24FEB06): 0.5 µg/mL
MIC ([1]; read-out: Minimal Inhibitory Concentration, MRSA isolate 774, 24FEB06): 1 µg/mL
MIC ([1]; read-out: Minimal Inhibitory Concentration, MRSA isolate 775, 24FEB06): 1 µg/mL
MIC ([1]; read-out: Minimal Inhibitory Concentration, MRSA isolate 776, 24FEB06): 1 µg/mL
MIC ([1]; read-out: Minimal Inhibitory Concentration, MRSA isolate 777, 24FEB06): 0.5 µg/mL
MIC ([1]; read-out: Minimal Inhibitory Concentration, MRSA isolate 778, 24FEB06): 1 µg/mL
MIC ([1]; read-out: Minimal Inhibitory Concentration, MRSA isolate 886, 24FEB06): 1 µg/mL
MIC ([1]; read-out: Minimal Inhibitory Concentration, MRSA isolate 887, 24FEB06): 0.5 µg/mL
MIC ([1]; read-out: Minimal Inhibitory Concentration, MRSA isolate 888, 24FEB06): 1 µg/mL
MIC ([1]; read-out: Minimal Inhibitory Concentration, MRSA isolate 889, 24FEB06): 1 µg/mL
MIC ([1]; read-out: Minimal Inhibitory Concentration, MRSA isolate 1004, 24FEB06): 1 µg/mL
MIC ([1]; read-out: Minimal Inhibitory Concentration, MRSA isolate 1010, 22FEB06): 0.5 µg/mL
MIC ([1]; read-out: Minimal Inhibitory Concentration, MRSA isolate 1012, 22FEB06): 0.5 µg/mL
MIC ([1]; read-out: Minimal Inhibitory Concentration, MRSA isolate 1013, 22FEB06): 0.5 µg/mL
MIC ([1]; read-out: Minimal Inhibitory Concentration, MRSA isolate 1014, 22FEB06): 0.5 µg/mL
MIC ([1]; read-out: Minimal Inhibitory Concentration, MRSA isolate 1015, 22FEB06): 0.5 µg/mL
MIC ([1]; read-out: Minimal Inhibitory Concentration, MRSA isolate 1016, 22FEB06): 0.5 µg/mL
MIC ([1]; read-out: Minimal Inhibitory Concentration, MRSA isolate 1017, 22FEB06): 0.5 µg/mL
MIC ([1]; read-out: Minimal Inhibitory Concentration, MRSA isolate 1021, 22FEB06): 0.5 µg/mL
MIC ([1]; read-out: Minimal Inhibitory Concentration, MRSA isolate 1022, 22FEB06): 0.5 µg/mL
MIC ([1]; read-out: Minimal Inhibitory Concentration, MRSA isolate 1023, 22FEB06): 0.5 µg/mL
MIC ([1]; read-out: Minimal Inhibitory Concentration, MRSA isolate 1024, 22FEB06): 0.5 µg/mL
MIC ([1]; read-out: Minimal Inhibitory Concentration, MRSA isolate 1025, 22FEB06): 1 µg/mL
MIC ([1]; read-out: Minimal Inhibitory Concentration, MRSA isolate 1135, 22FEB06): 0.5 µg/mL
MIC ([1]; read-out: Minimal Inhibitory Concentration, MRSA isolate 1136, 22FEB06): 0.5 µg/mL
MIC ([1]; read-out: Minimal Inhibitory Concentration, MRSA isolate 1137, 22FEB06): 0.5 µg/mL
MIC ([1]; read-out: Minimal Inhibitory Concentration, MRSA isolate 1138, 22FEB06): 0.5 µg/mL
MIC ([1]; read-out: Minimal Inhibitory Concentration, MRSA isolate 1222, 03MAR06): 1 µg/mL
MIC ([1]; read-out: Minimal Inhibitory Concentration, MRSA isolate 1222, 24FEB06): 1 µg/mL
MIC ([1]; read-out: Minimal Inhibitory Concentration, MRSA isolate 1653, 03MAR06): 1 µg/mL
MIC ([1]; read-out: Minimal Inhibitory Concentration, MRSA isolate 1658, 03MAR06): 0.5 µg/mL
MIC ([1]; read-out: Minimal Inhibitory Concentration, MRSA isolate 1659, 03MAR06): 1 µg/mL
MIC ([1]; read-out: Minimal Inhibitory Concentration, MRSA isolate 1661, 03MAR06): 1 µg/mL
MIC ([1]; read-out: Minimal Inhibitory Concentration, MRSA isolate 1729, 03MAR06): 2 µg/mL
MIC ([1]; read-out: Minimal Inhibitory Concentration, MRSA isolate 1730, 24FEB06): 1 µg/mL
MIC ([1]; read-out: Minimal Inhibitory Concentration, MRSA isolate 2009, 24FEB06): 2 µg/mL
MIC ([1]; read-out: Minimal Inhibitory Concentration, MRSA isolate 2010, 24FEB06): 0.5 µg/mL
MIC ([1]; read-out: Minimal Inhibitory Concentration, MRSA isolate 2011, 24FEB06): 1 µg/mL
MIC [2]: 0.5 µg/mL
CLSI QC Range (MIC) [3]: 0.5 to 2 µg/mL
CLSI QC Range (MIC) [4]: 1 to 4 µg/mL
